Experimental findings from patent EP2975030B1, “DIHYDROPYRIDAZINE-3,5-DIONE DERIVATIVE” (Chugai Seiyaku Kabushiki Kaisha, priority 2013, dated 2014) are described below.

In the test the test system is rat small-intestinal brush border membrane vesicles. Briefly: Inhibitory effect on 33PO4 uptake into rat small-intestinal brush border membrane vesicles (rapid filtration method). It is filed as biochemical, Wistar female rat. The settings on record: 1 µM test compound; 33PO4 uptake into rat small-intestinal BBMVs, 60 seconds. As for the experimental part: The ^33PO4 transport activity of the small-intestinal BBMVs was determined by the rapid filtration method. […] Then, ice-cold buffer C (110 mM NaCl, 1 mM KH2PO4, and 10 mM HEPES (pH 7.5)) was added to each reaction mixture, which was immediately suction-filtered through a Millipore filter. The filter was washed with buffer C, and each sample was then dissolved in a liquid scintillator. The amount of ^33PO4 uptake into BBMVs was measured using a liquid scintillation counter. […]
As to `C[C@]12CCCN1N(Cc1cc(F)c(F)c(F)c1)C(=O)C(C(=O)Nc1cc(F)c(Br)c(F)c1)=C2O` [Example 197], the “Rate of uptake inhibition (%) (1 µM)” value is reported as 82%.

Regarding `C[C@]12CCCN1N(Cc1c(F)cc(C#CCCCCOC[C@H](O)CO)cc1F)C(=O)C(C(=O)Nc1ccc(C(F)(F)F)cc1-c1ccc(C(F)(F)F)nc1)=C2O.[Na+]` [Example 143], the “Rate of uptake inhibition (%) (1 µM)” value is listed as 71%.

In the case of `C[C@]12CCCN1N(Cc1cccc(F)c1F)C(=O)C(C(=O)Nc1ccc(Br)c(F)c1)=C2O` [Example 28], the “Rate of uptake inhibition (%) (1 µM)” value came out at 72%.

In the case of `CN1N(Cc2ccc(OCCCOCCO)c(F)c2F)C(=O)C(C(=O)Nc2ccc(C(F)(F)F)cc2-c2cc(C(F)(F)F)ncn2)=C(O)C12CCCC2` [Example 395], the “Rate of uptake inhibition (%) (1 µM)” value is given as 39%.

With `C[C@]12CCCN1N(Cc1cccc(F)c1F)C(=O)C(C(=O)Nc1ccc(Br)cc1-c1cc(C(F)(F)F)ncn1)=C2O` [Example 64], the “Rate of uptake inhibition (%) (1 µM)” value came out at 77%.

Take `Cc1cc(NC(=O)C2=C(O)[C@H]3CCCCN3N(Cc3cccc(F)c3)C2=O)c(C(F)(F)F)o1` [Example 15, (4aR)-1-[(3-Fluorophenyl)methyl]-4-hydroxy-N-[5-methyl-2-(tritluoromethyl)furan-3-yl]-2-oxo-5,6,7,8-tetrahydro-4aH-pyrido[1,2-b]pyridazine-3-carboxamide]: the “Rate of uptake inhibition (%) (1 µM)” value is 42%.

Regarding `CN1N(Cc2ccc(OCCN(CCO)CCO)c(F)c2F)C(=O)C(C(=O)Nc2ccc(C(F)(F)F)cc2-c2cc(C(F)(F)F)ncn2)=C(O)C12CCC2` [Example 351], the “Rate of uptake inhibition (%) (1 µM)” value came out at 22%.

For `Cc1ccc(CN2C(=O)C(C(=O)Nc3ccc(C(F)(F)F)cc3-c3cc(C(F)(F)F)ncn3)=C(O)[C@@]3(C)CCCN23)cc1` [Example 187], the “Rate of uptake inhibition (%) (1 µM)” value is on record as 80%.

Regarding `CN1N(Cc2ccc(OCCN3[C@@H]4COC[C@H]3C4)c(F)c2F)C(=O)C(C(=O)Nc2ccc(C(F)(F)F)cc2-c2cc(C(F)(F)F)ncn2)=C(O)C12CCCC2` [Example 380], the “Rate of uptake inhibition (%) (1 µM)” value was 43%.

Take `CC(C)[C@@H]1C(O)=C(C(=O)Nc2ccc(Cl)cc2-c2cc(C(F)(F)F)ncn2)C(=O)N(Cc2cccc(F)c2F)N1C` [Example 250]: the “Rate of uptake inhibition (%) (1 µM)” value is 52%.

Regarding `CN1N(Cc2ccc(OCCCCOC[C@H](O)CO)c(F)c2F)C(=O)C(C(=O)Nc2ccc(C(F)(F)F)cc2-c2ccc(C(F)(F)F)nc2)=C(O)C12CCCC2` [Example 387], the “Rate of uptake inhibition (%) (1 µM)” value is 23%.

On to “(4aR)-1-[(2,3-Difluorophenyl)methyl]-4a-ethyl-4-hydroxy-N-[5-methyl-2-(trifluoromethyl)furan-3-yl]-2-oxo-6,7-dihydro-5H-pyrrolo[1,2-b]pyridazine-3-carboxamide [Example 10]”, for which the “Rate of uptake inhibition (%) (1 µM)” value is reported as 37%.

As to `C#Cc1ccc(CN2C(=O)C(C(=O)Nc3ccc(C(F)(F)F)cc3-c3cc(C(F)(F)F)ncn3)=C(O)[C@@]3(C)CCCN23)c(F)c1F` [Example 126, (4aR)-1-[(4-Ethynyl-2,3-difluorophenyl)methyl]-4-hydroxy-4a-methyl-2-oxo-N-[4-(trifluoromethyl)-2-[6-(trifluoromethyl)pyrimidin-4-yl]phenyl]-6,7-dihydro-5H-pyrrolo[1.2-b]pyridazine-3-carboxamide], the “Rate of uptake inhibition (%) (1 µM)” value was 71%.

For `CCCCCN1C(=O)C(C(=O)Nc2ccc(C(F)(F)F)cc2-c2ccc(C(F)(F)F)nc2)=C(O)[C@@]2(C)CCCN12` [Example 26], the “Rate of uptake inhibition (%) (1 µM)” value was 72%.

Take `CN1N(Cc2cccc(F)c2F)C(=O)C(C(=O)Nc2ccc(C(F)(F)F)cc2-c2cc(C(F)(F)F)ncn2)=C(O)C12CCCC2` [Example 260]: the “Rate of uptake inhibition (%) (1 µM)” value worked out at 70%.

With `CN1N(Cc2ccc(NCCCN3CCOCC3)c(F)c2F)C(=O)C(C(=O)Nc2ccc(C(F)(F)F)cc2-c2cc(C(F)(F)F)ncn2)=C(O)C12CCCC2` [Example 446], the “Rate of uptake inhibition (%) (1 µM)” value was 31%.

Take `CN1N(Cc2cccc(F)c2F)C(=O)C(C(=O)Nc2ccc(C(F)(F)F)cc2-c2ncnc(C#N)c2Cl)=C(O)C1(C)C` [Example 312]: the “Rate of uptake inhibition (%) (1 µM)” value was 74%.

Take `COCCN(C)CCNc1ccc(CN2C(=O)C(C(=O)Nc3ccc(C(F)(F)F)cc3-c3cc(C(F)(F)F)ncn3)=C(O)C3(CCCC3)N2C)c(F)c1F` [Example 417, 7-(2,3-Difluoro-4-((2-((2-methoxyethyl)(methyl)amino)ethyl)amino)benzyl)-10-hydroxy-6-methyl-8-oxo-N-(4-(trifluoromethyl)-2-(6-(trifluoromethyl)pyrimidin-4-yl)phenyl)-6,7-diazaspiro[4.5]dec-9-ene-9-carboxamide]: the “Rate of uptake inhibition (%) (1 µM)” value is on record as 48%.

Consider `CSc1ncc(-c2cc(C(F)(F)F)ccc2NC(=O)C2=C(O)[C@@]3(C)CCCN3N(Cc3ccc(OCCN4CCOCC4)c(F)c3F)C2=O)cn1` [Example 104], for which the “Rate of uptake inhibition (%) (1 µM)” value amounted to 73%.

Regarding `CN1N(Cc2ccc(OCCCCOC[C@H](O)CO)c(F)c2F)C(=O)C(C(=O)Nc2ccc(C(F)(F)F)cc2-c2ccc(C(F)(F)F)nc2)=C(O)C12CCC2` [Example 384], the “Rate of uptake inhibition (%) (1 µM)” value came to 39%.

Take `C[C@]12CCCN1N(Cc1ccccc1C#N)C(=O)C(C(=O)Nc1cc(F)c(Br)c(F)c1)=C2O` [Example 218]: the “Rate of uptake inhibition (%) (1 µM)” value was determined as 82%.

On to `C[C@]12CCCN1N(Cc1c(Cl)cc(OCCN3CCOCC3)cc1Cl)C(=O)C(C(=O)Nc1ccc(C(F)(F)F)nc1-c1ccc(C(F)(F)F)nc1)=C2O.Cl` [Example 148, (4aR)-1-[[2,6-Dichloro-4-(2-morpholin-4-ylethoxy)phenyl]methyl]-4-hydroxy-4a-methyl-2-oxo-N-[6-(trifluoromethyl)-2-[6-(trifluoromethyl)pyridin-3-yl]pyridin-3-yl]-6,7-dihydro-5H-pyrrolo[1,2-b]pyridazine-3-carboxamide hydrochloride], for which the “Rate of uptake inhibition (%) (1 µM)” value is 75%.

For `C[C@]12CCCN1N(Cc1c(F)cc(OCCCCCOC[C@@H](O)CO)cc1F)C(=O)C(C(=O)Nc1ccc(C(F)(F)F)cc1-c1ccc(C(F)(F)F)nc1)=C2O` [Example 153], the “Rate of uptake inhibition (%) (1 µM)” value was determined as 73%.

For the compound `C[C@]12CCCN1N(Cc1c(F)cccc1Cl)C(=O)C(C(=O)Nc1ccc(C(F)(F)F)cc1-c1cc(C(F)(F)F)ncn1)=C2O` [Example 210], the “Rate of uptake inhibition (%) (1 µM)” value came to 71%.

Take `C[C@]12CCCN1N(Cc1cccc(F)c1F)C(=O)C(C(=O)Nc1ccc(C(F)(F)F)cc1)=C2O` [Example 89]: the “Rate of uptake inhibition (%) (1 µM)” value was 67%.

For the compound `CN1N(Cc2ccc(OCCN3CCOCC3)c(F)c2F)C(=O)C(C(=O)Nc2ccc(C(F)(F)F)cc2-c2ccc(C(F)(F)F)nc2)=C(O)C12CCC2` [Example 282], the “Rate of uptake inhibition (%) (1 µM)” value is on record as 55%.

On to `COCCN1CCN(CCOc2ccc(CN3C(=O)C(C(=O)Nc4ccc(C(F)(F)F)cc4-c4cc(C(F)(F)F)ncn4)=C(O)C4(CCCC4)N3C)c(F)c2F)CC1` [Example 377], for which the “Rate of uptake inhibition (%) (1 µM)” value stood at 29%.

On to `C[C@]12CCCN1N(Cc1cccc(F)c1F)C(=O)C(C(=O)Nc1ccc(Br)cc1-c1ccc(Cl)nc1)=C2O` [Example 122, (4aR)-N-[4-Bromo-2-(6-chloropyridin-3-yl)phenyl]-1-[(2,3-difluorophenyl)methyl]-4-hydroxy-4a-methyl-2-oxo-6,7-dihydro-5H-pyrrolo[1,2-b]pyridazine-3-carboxamide], for which the “Rate of uptake inhibition (%) (1 µM)” value was determined as 82%.

As to `C[C@]12CCCN1N(Cc1cccc(C#N)c1)C(=O)C(C(=O)Nc1cc(F)c(Br)c(F)c1)=C2O` [Example 220], the “Rate of uptake inhibition (%) (1 µM)” value is reported as 96%.

Consider `CN1N(Cc2ccc(OCCN3CCOCC3)c(F)c2F)C(=O)C(C(=O)Nc2ccc(C(F)(F)F)cc2-c2cc(C(F)(F)F)ncn2)=C(O)C12CCCCC2` [Example 295], for which the “Rate of uptake inhibition (%) (1 µM)” value was determined as 21%.

On to `COCCN1CCC[C@H]1COc1ccc(CN2C(=O)C(C(=O)Nc3ccc(C(F)(F)F)cc3-c3cc(C(F)(F)F)ncn3)=C(O)C3(CCC3)N2C)c(F)c1F` [Example 404, 6-[[2,3-Difluoro-4-[[(2S)-1-(2-methoxyethyl)pirrolidin-2-yl]methoxy]phenyl]methyl]-9-hydroxy-5-methyl-7-oxo-N-[4-(trifluoromethyl)-2-[6-(trifluoromethyl)pyrimidin-4-yl]phenyl]-5,6-diazaspiro[3.5]non-8-ene-8-carboxamide], for which the “Rate of uptake inhibition (%) (1 µM)” value is given as 43%.

On to `C[C@]12CCCN1N(Cc1ccc(OCCCCOC[C@H](O)CO)c(F)c1F)C(=O)C(C(=O)Nc1ccc(Cl)cc1-c1ccc(C(F)(F)F)nc1)=C2O` [Example 121, (4aR)-N-[4-Chloro-2-[6-(trifluoromethyl)pyridin-3-yl]phenyl]-1-[[4-[4-[(2R)-2,3-dihydroxypropoxy]butoxy]-2,3-difluorophenyl]methy]-4-hydroxy-4a-methyl-2-oxo-6,7-dihydro-5H-pyrrolo[1,2-b]pyridazine-3-carboxamide], for which the “Rate of uptake inhibition (%) (1 µM)” value is reported as 72%.

With `CN1N(Cc2ccc(OCCN3CCOCC3)c(F)c2F)C(=O)C(C(=O)Nc2ccc(C(F)(F)F)cc2-c2cc(C(F)(F)F)ncn2)=C(O)C1(C)C` [Example 313, 2-[[2,3-Difluoro-4-(2-morpholin-4-ylethoxy)phenyl]methyl]-5-hydroxy-1,6,6-trimethyl-3-oxo-N-[4-(trifluoromethyl)-2-[6-(trifluoromethyl)pyrimidin-4-yl]phenyl]pyridazine-4-carboxamide], the “Rate of uptake inhibition (%) (1 µM)” value stood at 65%.

As to `CSc1ccc(-c2cc(C(F)(F)F)ccc2NC(=O)C2=C(O)[C@@]3(C)CCCN3N(Cc3ccc(OCCN4CCOCC4)c(F)c3F)C2=O)cn1` [Example 103], the “Rate of uptake inhibition (%) (1 µM)” value came out at 78%.

As for `C[C@]12CCCN1N(Cc1ccc(C#N)cc1)C(=O)C(C(=O)Nc1cc(F)c(Br)c(F)c1)=C2O` [Example 222], the “Rate of uptake inhibition (%) (1 µM)” value was found to be 97%.
